Here are results for 2 molecules from patent publication US20100113517A1, “METHOD FOR THE TREATMENT OF FABRY DISEASE USING PHARMACOLOGICAL CHAPERONES” (AMICUS THERAPEUTICS, INC., priority 2007, published 2010).

Series [1] deals with GL-3. Description: GL-3 analysis from mouse tissues (LC-MS/MS). The series is classed as in vivo. Conditions: male R301Q Tg/KO mice, 30 mg/kg daily per os, 4 weeks. As for the experimental part:
Drug Administration. […] For the GL-3 assay, two groups of 6-7 male […] After dosing, indicated tissues were harvested and treated as described below. GL-3 analysis from mouse tissues. Tissue samples were washed free of blood, weighed and homogenized with a solvent system in a FastPrep® system. Homogenate was then extracted using Solid Phase Extraction on a C18 cartridge. The eluent was evaporated and reconstituted prior to injection onto a LC/MS system. Nine GL3 isoforms were measured using positive ESI-MS/MS. LC separation was achieved on a Zorbax C18 column.

Series [2] deals with T1, human mutant α-Gal A (R301Q) (Homo sapiens, UniProt P06280, R301Q).
T1 construct: Tissue lysates were prepared by homogenizing about 50 mg tissue in assay buffer; from tissue; host or cells: heart, kidney, skin, liver and spleen of R301Q Tg/KO mice (human transgene, mouse α-Gal A knocked out)
T1 sequence (P06280 32-429 R301Q): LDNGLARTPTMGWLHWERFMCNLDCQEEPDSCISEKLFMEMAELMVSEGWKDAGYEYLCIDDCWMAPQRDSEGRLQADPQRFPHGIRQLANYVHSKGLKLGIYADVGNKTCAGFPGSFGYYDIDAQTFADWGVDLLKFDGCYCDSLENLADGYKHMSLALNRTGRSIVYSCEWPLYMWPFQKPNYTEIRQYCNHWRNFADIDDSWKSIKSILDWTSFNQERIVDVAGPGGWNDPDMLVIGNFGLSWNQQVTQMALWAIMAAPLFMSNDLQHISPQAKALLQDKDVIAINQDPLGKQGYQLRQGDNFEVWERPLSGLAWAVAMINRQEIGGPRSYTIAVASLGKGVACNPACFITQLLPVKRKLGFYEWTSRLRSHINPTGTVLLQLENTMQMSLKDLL
Description: α-Gal A (GLA) enzyme activity in tissue lysates of R301Q Tg/KO mice. It is filed as in vivo. To be noted: 4 weeks. An excerpt:
Transgenic mice that exclusively express human mutant α-Gal A (R301Q) in an α-Gal A knock-out background (TgM/KO mice) were established and evaluated. This Example serves as a biochemical model to study and evaluate pharmacological chaperone therapy for Fabry disease, which is specific for those missense mutations that cause misfolding of α-Gal A.
Mice. Fabry R301Q Tg/KO mice were a gift from Dr. Robert Desnick. Male C57BL/6 mice were purchased from Taconic Farms, Germantown, N.Y. and housed in wire cages at 4 mice per cage. All studies were conducted at 8 weeks of age and conducted under strict adherence to IACUC guidelines.
Drug Administration. […] After dosing, indicated tissues were harvested and treated as described below.
Enzyme activity assay. After dosing, indicated tissues were harvested and frozen. Tissue lysates were prepared by homogenizing about 50 mg tissue in assay buffer. 2.5 μL lysate was combined with 17.5 μL of the assay buffer and 50 μL of the respective substrate solution (same as detailed in sections above). Reaction mixtures were then incubated at 37° C. for 1 hr. Afterward, 70 μL stop solution (0.4 M glycine, pH 10.8) was added, and fluorescence was read on a Victor plate reader at 355 nm excitation and 460 nm emission. Enzyme activity in the lysates was background subtracted, and normalized for protein concentration using the MicroBCA Protein Assay Kit (Pierce). A 4-MU standard curve was run (same as detailed in sections above) for conversion of fluorescence data to absolute enzyme activity expressed as nmoles/mg protein/hr or further normalized to % of untreated activity.

The conditions of series [3]: including peripheral neuropathy and severe gastrointestinal effects; even at 150 mg/day; cited from earlier work.
The mark [4] stands for this setting: male R301Q Tg/KO mice, 30 mg/kg daily oral gavage, vs. untreated.

The structures appear in SMILES notation. Where a name gives a salt, the structure may show the parent alone.

Turning to `OCC1NCC(O)C(O)C1O` (stereo not shown) [DGJ HCl, migalastat hydrochloride], in series [1], the “GL-3 levels, kidney tissue” value was “trend towards reduction, but did not reach statistical significance”; the “reduction of GL-3 levels, heart tissue” value is given as 1.6 -fold; the “reduction of GL-3 levels, skin tissue” value was 2.2 -fold. Moreover, in series [2] (setting [4]), the “increase in mutant GLA activity, heart” value is 11±0.1 -fold; the “increase in mutant GLA activity, kidney” value is 5.5±0.3 -fold; the “increase in mutant GLA activity, liver” value was 3±0.02 -fold; the “increase in mutant GLA activity, skin” value was 6.2±0.7 -fold. In series [2] (setting [4]), the “increase in mutant GLA activity, spleen” value is 5±0.1 -fold. In addition, in series [2] (male and female R301Q Tg/KO mice, 30 mg/kg/day in drinking water), the “increase in mutant GLA activity, all treated tissues” value is “comparable increases”.
Consider `CCCCN1C[C@H](O)[C@@H](O)[C@H](O)[C@H]1CO` [NB-DNJ], for which the adverse events result in series [3] was “numerous adverse events”.
